Data taken from US4495201A, “Pharmaceutical composition and method for treating heart diseases therewith” (Institut Organicheskoi Khimii Imeni N.D. Zelinskogo, priority 1982, dated 1985).

How the values were obtained:
[1] = test system: zone of necrosis, perinecrotic zone and myocardium regions spaced from the place of infarction; assay: Experimental myocardial infarction in rabbits: histological, histochemical and electron-microscopic study; format: in vivo, rabbits of the Chinchilla variety; details: for effect on reparative processes in the zone of necrosis / organization of the post-infarction scar: comparison of preparations; for activity of lysis-ensuring enzymes: zone of necrosis and perinecrotic areas
Text: The experiment on animals has been performed on 419 rabbits of the Chinchilla variety with experimentally-induced myocardial infarction produced by ligation of the front descending branch of the coronary artery.
The effect of the composition according to the present invention on the progress of the experimental myocardial infarction has been studied in comparison with the effect produced by inosine, potassium orotate, vitamin B12 with folic acid and retabolyl.
Histological, histochemical and electron-microscopic methods of investigation have been employed to study the zone of necrosis, perinecrotic zone and myocardium regions spaced from the place of infarction by 1, 3 and 7 days after operation. Furthermore, to determine the contractile ability of myocardium, measurements of intracavitary pressure have been performed. Dynamic electrocardiographic observation over the animals was carried out 7 times during the first day (prior to operation, 15, 30 minutes, 1, 2, 3 and 4 hours after the administration) and during the following days two times a day (before and one hour after the administration).
The study of the total cross-sectional patterns of a rabbit's heart has made it possible to precisely define these zones.
The first group of rabbits has been intramuscularly injected with the composition according to the present invention in the dose of 1 mg/kg in a day.
The second group of rabbits has been injected with inosine in a dose of 30 mg/kg intravenously daily once a day; for the first time 16 hours after the operation and for the last time 2 hours before slaughter (i.e. before the 7th day). The third group of rabbits has been given potassium orotate in a dose of 30 mg/kg in the same sequence as the previous preparation, i.e. up to the 7th day.
The fourth group of animals has been administered vitamin B12 3γ/kg in combination with folic acid in the same sequence.
The fifth group of rabbits has been administered an anabilic hormone of a prolonged action--retabolyl in a dose of 5 mg/kg of the bodyweight 1-2 times intramuscularly up to the 7th day.

[2] = test system: left ventricle of the heart; assay: Intracardiac hemodynamics (intracavitary pressure); format: in vivo, rabbits; details: versus the composition
[3] = test system: central hemodynamics; assay: Central hemodynamics by radiocardiography in patients with myocardial infarction; format: in vivo; details: as compared to the control
Procedure: (§1) The composition according to the present invention is administered to the patients intramuscularly in a dose of from 25 to 50 mg once every three days.
On the 1th, 10th, 20th and 40th days of the disease the central hemodynamics was determined by the method of radiocardiography.

[4] = test system: insufficiency of blood circulation and post-infarctional aneurysm; assay: Clinical outcome: insufficiency of blood circulation and post-infarction aneurysm; format: in vivo, patients; details: comparison of the composition and inosine
Procedure: as §1
A further dynamic electrocardiographic observation is effected during the first day of injection of the composition (prior to injection and 1 and 2 hours thereafter), then once per 3 and later on--per 5 days. On the 1th, 10th, 20th and 40th days of the disease the central hemodynamics was determined by the method of radiocardiography. On the 10th and 40th days of the illness the contractile capacity of myocardium is assessed by methods of electro- and X-ray kymography. The biochemical control over the effect of the preparation was effected by determination, in dynamics in blood serum, of the products of decomposition of DNA, proline, hydroxyproline, transaminases. There was also analyzed the dynamics of normalization of leukocytosis, ESR (erythrocyte sedimentation rate), disappearance of aneosinophilia. The careful clinical assessment of the effect of the composition was also performed.

[5] = Solubility and stability; format: physicochemical

Q: With `O=C(O)c1cc(O)nc(O)n1` [potassium orotate, 2,6-dihydroxypyrimidine-4-carboxylic acid] as the compound, how does the “activity of lactatedehydrogenase in extra-infarction areas of myocardium” value [1] read?
A: slightly less pronounced effect

Q: And the “effect on reparative processes in the zone of necrosis / organization of the post-infarction scar” value [1]?
A: still less pronounced effect

Q: And the “activity of reactions of pentose-phosphate shunt (glucoso-6-phosphatehydrogenase)” value ([1]; perinecrotic areas of myocardium)?
A: slightly increasing activity

Q: What about the “activity of lysis-ensuring enzymes” value [1] of the same compound?
A: slightly increasing activity

Q: What about the “effect on formation of compensatory hyperfunction and hypertrophy of extrainfarction areas” value [2] of the same compound?
A: more marked effect

Q: Which results are given for `CCCCCCCCCC(=O)O[C@H]1CC[C@H]2[C@@H]3CCC4=CC(=O)CC[C@@H]4[C@H]3CC[C@]12C` [retabolyl, nandrolone decanoate]?
A: activity of lactatedehydrogenase in extra-infarction areas of myocardium [1]: slightly less pronounced effect; effect on reparative processes in the zone of necrosis / organization of the post-infarction scar [1]: less pronounced

Q: Which “cellular infiltration of the zone of necrosis” value [1] does the source give for `O=c1[nH]cnc2c1ncn2[C@@H]1O[C@H](CO)[C@@H](O)[C@H]1O` [inosine, hypoxanthine riboside] here?
A: enhanced cellular infiltration of the zone of infarction

Q: And the “effect on reparative processes in the zone of necrosis / organization of the post-infarction scar” value [1]?
A: substantially less pronounced than the effect of the preparation according to the present invention

Q: What about the “activity of lysis-ensuring enzymes” value [1] of the same compound?
A: increasing activity of lysis-ensuring enzymes is limited only to the zone of necrosis

Q: And the “effect on formation of compensatory hyperfunction and hypertrophy of extrainfarction areas” value [2]?
A: more marked effect

Q: What about the “regaining of hemodynamic characteristics (cardiac and systolic indices, beat work of the heart)” value [3] of the same compound?
A: more pronounced and earlier regaining

Q: What about the “patients in whom effect on state of blood circulation is greatest” value [4] of the same compound?
A: most pronounced effect on the state of blood circulation in patients with a repeated myocardial infarction

Q: Which “solubility in aqueous solutions of strong acids, alkalis, diluted solutions of salts” value [5] does the source give for `CC(C)=CCCC(C)=CCC(CCCN(C)C)C(=O)O` (stereo not shown) [4',5,9-trimethyl-2-(4'-aza-pentyl)decadi-4,8-ene acid] here?
A: well soluble

Q: What about the “solubility in fats and vegetable oils” value [5] of the same compound?
A: well soluble

Q: And the “solubility in organic solvents (ethanol, ether, acetone, gasoline, benzene)” value [5]?
A: well soluble

Q: And the solubility in water [5]?
A: well soluble

Q: And the “stability of aqueous solutions” value ([5]; aqueous solutions)?
A: transparent, stable and can be sterilized by conventional methods

Q: What about the stability in storage ([5]; not more than 25° C., advisable period two years) of the same compound?
A: stable in storage
